Biological target: T1, HisRS (Histidyl-tRNA synthetase) (Escherichia coli, UniProt P60906)
T1 sequence (P60906 2-424): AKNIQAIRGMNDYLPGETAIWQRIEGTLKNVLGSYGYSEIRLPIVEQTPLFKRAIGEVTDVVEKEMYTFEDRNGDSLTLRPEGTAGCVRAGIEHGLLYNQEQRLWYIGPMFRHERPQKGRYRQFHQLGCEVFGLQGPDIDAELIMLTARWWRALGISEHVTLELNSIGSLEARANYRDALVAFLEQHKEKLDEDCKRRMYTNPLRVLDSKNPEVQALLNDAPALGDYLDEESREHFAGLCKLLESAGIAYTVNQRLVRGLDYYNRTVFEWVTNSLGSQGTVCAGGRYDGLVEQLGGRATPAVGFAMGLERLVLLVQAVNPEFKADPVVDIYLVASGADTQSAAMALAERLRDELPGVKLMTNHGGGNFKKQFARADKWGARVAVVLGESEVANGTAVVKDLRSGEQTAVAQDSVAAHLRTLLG
Test: differential scanning fluorimetry
Assay type: binding
Settings: 10 mM ATP; apo Tm 53.4 ± 1.1 °C; 10 uM enzyme, 20 mM HEPES pH 7.5, 150 mM KCl

- ATP 10 mM Tm (°C): 55.8 ± 0.5 °C
SMILES: Nc1ncnc2c1ncn2[C@@H]1O[C@H](COP(=O)(O)OP(=O)(O)OP(=O)(O)O)[C@@H](O)[C@H]1O [ATP]

— article PMC5493479 (Methods (San Diego, Calif.), 2016)
